Assay results reported in ChEMBL document CHEMBL4219086, “Development of benzoxazole deoxybenzoin oxime and acyloxylamine derivatives targeting innate immune sensors and xanthine oxidase for treatment of gout” (Bioorg Med Chem, 2018).
Activity calls are given as the source filed them. The rule behind the calls is not given here.

Columns and labels:
Toll-like receptor 4 = Toll-like receptor 4 (Homo sapiens, UniProt O00206); test: Inhibition of human TLR4 signaling expressed in HEK-Blue cells co-expressing MD2/CD14 assessed as reduction in LPS-induced NF-kappaB activation-mediated SEAP production preincubated for 2 hrs followed by LPS stimulation for 20 hrs by colorimetric assay; assay type: cell-based
Chain of Toll-like receptor 4 (O00206 whole entry, the tested form may be a part): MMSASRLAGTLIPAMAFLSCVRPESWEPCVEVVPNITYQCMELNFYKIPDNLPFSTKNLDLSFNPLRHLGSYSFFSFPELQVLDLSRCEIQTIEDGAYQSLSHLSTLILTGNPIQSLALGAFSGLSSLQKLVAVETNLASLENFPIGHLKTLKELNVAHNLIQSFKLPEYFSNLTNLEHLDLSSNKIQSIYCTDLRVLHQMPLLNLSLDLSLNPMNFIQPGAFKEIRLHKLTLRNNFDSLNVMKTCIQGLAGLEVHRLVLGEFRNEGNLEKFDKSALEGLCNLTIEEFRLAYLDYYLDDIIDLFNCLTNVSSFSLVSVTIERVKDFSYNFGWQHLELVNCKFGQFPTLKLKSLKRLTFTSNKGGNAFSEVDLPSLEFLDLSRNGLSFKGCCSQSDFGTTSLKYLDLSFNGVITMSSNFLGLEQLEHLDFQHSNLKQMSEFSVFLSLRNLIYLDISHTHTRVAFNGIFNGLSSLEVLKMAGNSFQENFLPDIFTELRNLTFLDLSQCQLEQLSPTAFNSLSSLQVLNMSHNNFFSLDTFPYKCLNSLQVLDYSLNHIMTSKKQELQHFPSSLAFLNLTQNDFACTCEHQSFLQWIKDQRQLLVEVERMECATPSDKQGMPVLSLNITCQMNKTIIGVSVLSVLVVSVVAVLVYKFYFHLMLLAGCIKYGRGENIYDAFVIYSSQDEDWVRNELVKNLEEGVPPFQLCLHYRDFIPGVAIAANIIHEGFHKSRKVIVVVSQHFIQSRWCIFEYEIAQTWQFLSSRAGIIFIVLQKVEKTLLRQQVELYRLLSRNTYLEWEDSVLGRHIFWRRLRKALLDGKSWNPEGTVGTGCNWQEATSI

[1] = target: NACHT, LRR and PYD domains-containing protein 3 (Homo sapiens, UniProt Q96P20); test: Inhibition of NLRP3 inflammasome in human THP1 cells assessed as reduction in MSU-induced IL-1beta production preincubated for 1 hr followed by MSU stimulation measured after 6 hrs; assay type: cell-based
Chain of NACHT, LRR and PYD domains-containing protein 3 (Q96P20 whole entry, the tested form may be a part): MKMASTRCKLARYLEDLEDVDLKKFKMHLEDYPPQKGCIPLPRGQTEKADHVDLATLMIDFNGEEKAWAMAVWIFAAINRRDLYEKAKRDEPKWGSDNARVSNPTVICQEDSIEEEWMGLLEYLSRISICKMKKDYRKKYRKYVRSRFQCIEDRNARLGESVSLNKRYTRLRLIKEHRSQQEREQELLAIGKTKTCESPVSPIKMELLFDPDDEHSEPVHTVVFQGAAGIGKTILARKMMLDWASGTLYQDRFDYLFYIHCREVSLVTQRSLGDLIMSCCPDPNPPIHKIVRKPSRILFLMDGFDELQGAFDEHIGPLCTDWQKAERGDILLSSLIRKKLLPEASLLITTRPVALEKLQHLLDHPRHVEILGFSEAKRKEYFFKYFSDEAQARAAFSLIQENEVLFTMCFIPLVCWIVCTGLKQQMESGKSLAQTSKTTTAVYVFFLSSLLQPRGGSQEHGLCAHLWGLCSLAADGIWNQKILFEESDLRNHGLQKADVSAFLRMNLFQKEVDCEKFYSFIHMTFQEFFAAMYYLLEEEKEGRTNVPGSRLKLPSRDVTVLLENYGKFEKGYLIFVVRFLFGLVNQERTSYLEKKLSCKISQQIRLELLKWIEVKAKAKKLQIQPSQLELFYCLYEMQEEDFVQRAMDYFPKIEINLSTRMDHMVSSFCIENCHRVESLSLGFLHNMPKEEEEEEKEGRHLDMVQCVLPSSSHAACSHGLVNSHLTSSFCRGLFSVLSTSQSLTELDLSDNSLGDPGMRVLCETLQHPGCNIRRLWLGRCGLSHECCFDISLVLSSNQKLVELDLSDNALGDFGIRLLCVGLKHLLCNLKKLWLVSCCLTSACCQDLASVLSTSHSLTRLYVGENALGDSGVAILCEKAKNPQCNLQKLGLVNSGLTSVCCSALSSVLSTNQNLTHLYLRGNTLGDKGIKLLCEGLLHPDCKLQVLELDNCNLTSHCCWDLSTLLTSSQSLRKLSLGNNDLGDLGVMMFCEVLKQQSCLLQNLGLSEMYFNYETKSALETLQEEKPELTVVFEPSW

Rattus norvegicus [2] = test: Inhibition of MSU-induced ASC protein level in synovial homogenate of acute gouty arthritis Sprague-Dawley rat model at 10 mg/kg, po qd pretreated via gavage for 5 days followed by MSU treatment at 1 hr post last dose measured up to 24 hrs by Western blot method; assay type: functional, organism-based
Rattus norvegicus [3] = test: (§1) Antiarthritic activity in MSU-induced acute gouty arthritis Sprague-Dawley rat model assessed as reduction in ankle swelling by measuring perimeter of ankle at 10 mg/kg, po qd pretreated via gavage for 5 days followed by MSU treatment at 1 hr post last dose measured after 8 hrs (reference value: 3.27 +/- 0.56 cm); assay type: functional
Rattus norvegicus [4] = test: Inhibition of MSU-induced phosphorylated IkappaB protein level in synovial homogenate of acute gouty arthritis Sprague-Dawley rat model at 10 mg/kg, po qd pretreated via gavage for 5 days followed by MSU treatment at 1 hr post last dose measured up to 24 hrs by Western blot method; assay type: functional, organism-based
Rattus norvegicus [5] = test: as §1, with “24” for “8”, “3.35” for “3.27”, “0.5” for “0.56”; assay type: functional
Rattus norvegicus [6] = test: Inhibition of MSU-induced p65 NFkappaB protein level in synovial homogenate of acute gouty arthritis Sprague-Dawley rat model at 10 mg/kg, po qd pretreated via gavage for 5 days followed by MSU treatment at 1 hr post last dose measured up to 24 hrs by Western blot method; assay type: functional, organism-based
Rattus norvegicus [7] = test: as §1, with “immediately” for “after 8 hrs”, “2.64” for “3.27”, “0.81” for “0.56”; assay type: functional
Rattus norvegicus [8] = test: Inhibition of MSU-induced NLRP3 protein level in synovial homogenate of acute gouty arthritis Sprague-Dawley rat model at 10 mg/kg, po qd pretreated via gavage for 5 days followed by MSU treatment at 1 hr post last dose measured up to 24 hrs by Western blot method; assay type: functional, organism-based
Rattus norvegicus [9] = test: Inhibition of MSU-induced MyD88 protein level in synovial homogenate of acute gouty arthritis Sprague-Dawley rat model at 10 mg/kg, po qd pretreated via gavage for 5 days followed by MSU treatment at 1 hr post last dose measured up to 24 hrs by Western blot method; assay type: functional, organism-based
Rattus norvegicus [10] = test: Inhibition of MSU-induced TNFalpha level in serum of acute gouty arthritis Sprague-Dawley rat model at 10 mg/kg, po qd pretreated via gavage for 5 days followed by MSU treatment at 1 hr post last dose measured up to 24 hrs by ELISA; assay type: functional, organism-based
Rattus norvegicus [11] = test: Inhibition of MSU-induced TLR4 protein level in synovial homogenate of acute gouty arthritis Sprague-Dawley rat model at 10 mg/kg, po qd pretreated via gavage for 5 days followed by MSU treatment at 1 hr post last dose measured up to 24 hrs by Western blot method; assay type: functional, organism-based
Rattus norvegicus [12] = test: Inhibition of MSU-induced IL-1beta level in serum of acute gouty arthritis Sprague-Dawley rat model at 10 mg/kg, po qd pretreated via gavage for 5 days followed by MSU treatment at 1 hr post last dose measured up to 24 hrs by ELISA; assay type: functional, organism-based
Rattus norvegicus [13] = test: as §1, with “4” for “8”, “3.18” for “3.27”, “0.64” for “0.56”; assay type: functional
Rattus norvegicus [14] = test: as §1, with “2” for “8”, “2.82” for “3.27”, “0.75” for “0.56”; assay type: functional
Rattus norvegicus [15] = test: Inhibition of MSU-induced caspase-1 protein level in synovial homogenate of acute gouty arthritis Sprague-Dawley rat model at 10 mg/kg, po qd pretreated via gavage for 5 days followed by MSU treatment at 1 hr post last dose measured up to 24 hrs by Western blot method; assay type: functional, organism-based
Rattus norvegicus [16] = test: Inhibition of MSU-induced TNFalpha level in synovial homogenate of acute gouty arthritis Sprague-Dawley rat model at 10 mg/kg, po qd pretreated via gavage for 5 days followed by MSU treatment at 1 hr post last dose measured up to 24 hrs by ELISA; assay type: functional, organism-based
Rattus norvegicus [17] = test: as §1, with “12” for “8”, “3.51” for “3.27”, “0.52” for “0.56”; assay type: functional
Rattus norvegicus [18] = test: Inhibition of MSU-induced IL-1beta level in synovial homogenate of acute gouty arthritis Sprague-Dawley rat model at 10 mg/kg, po qd pretreated via gavage for 5 days followed by MSU treatment at 1 hr post last dose measured up to 24 hrs by ELISA; assay type: functional, organism-based
[19] = target: Xanthine dehydrogenase/oxidase (Homo sapiens, UniProt P47989); test: Inhibition of Xanthine oxidase (unknown origin) using xanthine as substrate preincubated for 1 to 5 mins followed by substrate addition
Chain of Xanthine dehydrogenase/oxidase (P47989 whole entry): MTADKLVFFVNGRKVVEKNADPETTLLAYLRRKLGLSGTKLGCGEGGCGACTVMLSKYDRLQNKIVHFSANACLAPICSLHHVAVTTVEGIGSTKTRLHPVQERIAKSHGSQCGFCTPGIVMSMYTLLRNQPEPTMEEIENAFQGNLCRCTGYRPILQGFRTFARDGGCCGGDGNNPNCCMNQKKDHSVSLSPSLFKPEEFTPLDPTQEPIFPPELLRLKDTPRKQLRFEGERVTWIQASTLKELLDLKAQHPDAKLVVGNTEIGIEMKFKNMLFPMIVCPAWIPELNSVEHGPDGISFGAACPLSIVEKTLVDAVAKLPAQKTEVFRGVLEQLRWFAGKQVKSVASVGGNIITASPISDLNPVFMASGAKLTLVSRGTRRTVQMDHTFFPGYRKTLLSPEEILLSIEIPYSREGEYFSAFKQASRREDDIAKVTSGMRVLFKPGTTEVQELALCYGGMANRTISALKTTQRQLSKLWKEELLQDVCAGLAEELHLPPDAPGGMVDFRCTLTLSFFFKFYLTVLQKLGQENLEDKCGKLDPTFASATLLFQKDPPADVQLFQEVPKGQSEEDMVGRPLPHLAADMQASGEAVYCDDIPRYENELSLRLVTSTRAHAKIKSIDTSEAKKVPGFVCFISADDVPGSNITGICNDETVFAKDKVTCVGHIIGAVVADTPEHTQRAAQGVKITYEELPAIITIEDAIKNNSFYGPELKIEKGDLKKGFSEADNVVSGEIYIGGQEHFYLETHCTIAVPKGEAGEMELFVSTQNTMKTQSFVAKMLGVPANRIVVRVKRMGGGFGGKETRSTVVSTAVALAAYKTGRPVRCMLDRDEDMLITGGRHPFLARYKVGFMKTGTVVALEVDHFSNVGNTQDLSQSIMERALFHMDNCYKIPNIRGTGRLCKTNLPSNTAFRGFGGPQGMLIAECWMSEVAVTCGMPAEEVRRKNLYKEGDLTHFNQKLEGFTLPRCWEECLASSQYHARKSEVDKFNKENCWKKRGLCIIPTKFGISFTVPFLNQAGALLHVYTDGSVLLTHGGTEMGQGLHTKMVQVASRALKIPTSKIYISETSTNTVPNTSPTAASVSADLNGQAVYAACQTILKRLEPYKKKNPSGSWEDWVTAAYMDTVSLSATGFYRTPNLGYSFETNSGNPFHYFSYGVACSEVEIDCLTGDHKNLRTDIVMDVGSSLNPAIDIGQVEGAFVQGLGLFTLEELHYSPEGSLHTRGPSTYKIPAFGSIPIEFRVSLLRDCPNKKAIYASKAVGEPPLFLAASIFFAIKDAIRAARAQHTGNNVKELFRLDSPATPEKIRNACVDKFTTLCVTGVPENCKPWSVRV

Mus musculus [20] = test: In vivo inhibition of XOD activity in liver of Kunming mouse model of potassium oxonate-induced hyperuricemia at 10 mg/kg, po treated 1 hr post potassium oxonate addition measured after 1 hr relative to control; assay type: functional
Mus musculus [21] = test: Hypouricemic effect in Kunming mouse assessed as inhibition of hepatic XOD activity at 10 mg/kg, po measured after 1 hr relative to control; assay type: organism-based
Mus musculus [22] = organism: Mus musculus; settings: Kunming, 10 mg/kg
Description: Anti-hyperuricemic effect in Kunming mouse assessed as inhibition of potassium oxonate-induced serum uric acid level at 10 mg/kg, po treated 1 hr post potassium oxonate addition measured after 1 hr by phosphotungstic acid method relative to control

Cc1ccc2nc(/C(Cc3ccccc3)=N/O)oc2c1
IC50 (Toll-like receptor 4): 19.3 µM

O=C(/C=C/c1ccc(O)cc1)c1ccc(O)cc1O [ISOLIQUIRITIGENIN]
IC50 [1]: 1.54 µM

CCOC(=O)C1=CCCC[C@H]1S(=O)(=O)Nc1ccc(F)cc1Cl [RESATORVID]
IC50 (Toll-like receptor 4): 0.68 µM

COc1cc2c(c(OC)c1OC)-c1ccc(OC)c(=O)cc1[C@@H](NC(C)=O)CC2 [COLCHICINE]
inhibition (Rattus norvegicus [2]): Active | Activity (Rattus norvegicus [3]): 2.77 cm | inhibition (Rattus norvegicus [4]): Active | Activity (Rattus norvegicus [5]): 2.79 cm | inhibition (Rattus norvegicus [6]): Active | Activity (Rattus norvegicus [7]): 2.49 cm | inhibition (Rattus norvegicus [8]): Active | inhibition (Rattus norvegicus [9]): Active | inhibition (Rattus norvegicus [10]): Active | inhibition (Rattus norvegicus [11]): Active | inhibition (Rattus norvegicus [12]): Active | Activity (Rattus norvegicus [13]): 2.81 cm | Activity (Rattus norvegicus [14]): 2.73 cm | inhibition (Rattus norvegicus [15]): Active | inhibition (Rattus norvegicus [16]): Active | Activity (Rattus norvegicus [17]): 2.8 cm | inhibition (Rattus norvegicus [18]): Active

O/N=C(\Cc1ccccc1)c1nc2ccc(Br)cc2o1
IC50 [19]: > 100 µM

COc1ccc(C/C(=N\O)c2nc3ccc(Cl)cc3o2)cc1
IC50 (Toll-like receptor 4): 5.42 µM | IC50 [19]: 17.8 µM | IC50 [1]: 5.72 µM

COc1ccccc1C(=O)O/N=C(\C)c1nc2ccccc2o1
IC50 (Toll-like receptor 4): 25.9 µM | IC50 [19]: 15.2 µM | IC50 [1]: 39.5 µM

O/N=C(\Cc1ccc(F)cc1)c1nc2ccc(Br)cc2o1
IC50 [19]: > 100 µM

O/N=C(\Cc1ccc(F)cc1)c1nc2ccc(Cl)cc2o1
IC50 [19]: > 100 µM

Oc1ncnc2[nH]ncc12 [ALLOPURINOL]
inhibition in vivo at 10 mg/kg (Mus musculus [20]): 47.1% | inhibition at 10 mg/kg (Mus musculus [21]): 27.9% | inhibition (Mus musculus [22]): Active

O/N=C(\Cc1ccc(F)cc1)c1nc2cc(Cl)ccc2o1
IC50 [19]: > 100 µM

Cc1ccc2oc(/C(Cc3ccc(F)cc3)=N/O)nc2c1
IC50 (Toll-like receptor 4): 45.7 µM
